Test results from patent publication EP1000039B1 (Wyeth Holdings Corporation, priority 1997, dated 1999).
pIC50: −log10 of the molar value. Converted amounts (≈) assume the structure as drawn. Where two headings read alike, the source gives them in different places.

Legend:
[1] = system: SKBR3; test: Inhibition of Cancer Cell Growth (Sulforhodamine B); assay type: cell-based, Human; settings: for IC50: Homo sapiens, SK-BR-3, 48 hours exposure, read-out: Inhibition of Cancer Cell Growth as Measured by Cell Number (IC50) SKBR3
Procedure: (§1) After 48 hours exposure to test compounds, cells were fixed with trichloroacetic acid, and stained with Sulforhodamine B. After washing with trichloroacetic acid, bound dye was solubilized in 10 mM Tris base and optical density was determined using plate reader. Under conditions of the assay the optical density is proportional to the number of cells in the well. […] The test procedure is described in details by Philip Skehan et. al. J.Natl. Canc. […]

[2] = system: A431; test: as above; assay type: cell-based, Human; settings: for IC50: Homo sapiens, A-431, 48 hours exposure, read-out: Inhibition of Cancer Cell Growth as Measured by Cell Number (IC50) A431
Procedure: as §1

[3] = system: MCF7; test: as above; assay type: cell-based, Human; settings: 48 hours exposure; for IC50: Homo sapiens, read-out: Inhibition of Cancer Cell Growth as Measured by Cell Number (IC50) MCF7
Procedure: as §1

[4] = system: A2780DDP; test: as above; assay type: cell-based, Human; settings: 48 hours exposure; for IC50: Homo sapiens, read-out: Inhibition of Cancer Cell Growth as Measured by Cell Number (IC50) A2780DDP
Procedure: as §1

[5] = system: SW620; test: as above; assay type: cell-based, Human; settings: for IC50: Homo sapiens, SW-620, 48 hours exposure, read-out: Inhibition of Cancer Cell Growth as Measured by Cell Number (IC50) SW620
Procedure: as §1

[6] = system: LOX; test: as above; assay type: cell-based, Human; settings: 48 hours exposure; for IC50: Homo sapiens, read-out: Inhibition of Cancer Cell Growth as Measured by Cell Number (IC50) LOX
Procedure: as §1

[7] = system: A2780S; test: as above; assay type: cell-based, Human; settings: 48 hours exposure; for IC50: Homo sapiens, read-out: Inhibition of Cancer Cell Growth as Measured by Cell Number (IC50) A2780S
Procedure: as §1

[8] = target: T1, His-tagged cytoplasmic domain of EGFR (Homo sapiens, UniProt P00533); test: Inhibition of Epidermal Growth Factor Receptor Kinase (EGF-R) using recombinant enzyme, RR-SRC peptide phosphorylation; assay type: biochemical
T1 construct: containing the EGFR cDNA encoding amino acids 645 - 1186 preceded by Met-Ala-(His)6; Met-Ala-(His)6 (N); made in house; host or cells: Sf9 insect cells, recombinant baculovirus vHcEGFR52
Procedure: The enzyme used in this assay is the His-tagged cytoplasmic domain of EGFR. […] Sf9 cells in 100 mm plates were infected at an moi of 10 pfu/cell and cells were harvested 48 h post infection. A cytoplasmic extract was prepared using 1% Triton X-100 and applied to Ni-NTA column. After washing the column with 20 mM imidazole, HcEGFR was eluted with 250 mM imidazole (in 50 mM Na2HPO4, pH 8.0, 300 mM NaCl). Fractions collected were dialyzed against 10 mM HEPES, pH 7.0, 50 mM NaCl, 10% glycerol, 1ug/mL antipain and leupeptin and 0. 1 mM Pefabloc SC. The protein was frozen in dry ice/methanol and stored -70°C.
For the enzyme reaction, 10 uL of each inhibitor (at various concentrations) were added to each well of a 96-well plate. To this was added 3 uL of enzyme (1: 10 dilution in 10mM HEPES, pH 7.4 for final conc. of 1:120). This was allowed to sit for 10 min on ice and was followed by the addition of 5 ul peptide (80 uM final conc.), 10ul of 4X Buffer (Table A), 0.25 uL ^33P-ATP and 12 uL H2O. The reaction was allowed to run for 90 min at room temperature and was followed by spotting the entire volume on to precut P81 filter papers. The filter discs were washed 2X with 0.5% phosphoric acid and radioactivity was measured using a liquid scintillation counter.

[9] = system: MB435; test: Inhibition of Cancer Cell Growth (Sulforhodamine B); assay type: cell-based, Human; settings: 48 hours exposure; for IC50: Homo sapiens, read-out: Inhibition of Cancer Cell Growth as Measured by Cell Number (IC50) MB435
Procedure: as §1

[10] = recombinant enzyme, average of the number of tests, read-out: IC50

T1 sequence (P00533 669-1210): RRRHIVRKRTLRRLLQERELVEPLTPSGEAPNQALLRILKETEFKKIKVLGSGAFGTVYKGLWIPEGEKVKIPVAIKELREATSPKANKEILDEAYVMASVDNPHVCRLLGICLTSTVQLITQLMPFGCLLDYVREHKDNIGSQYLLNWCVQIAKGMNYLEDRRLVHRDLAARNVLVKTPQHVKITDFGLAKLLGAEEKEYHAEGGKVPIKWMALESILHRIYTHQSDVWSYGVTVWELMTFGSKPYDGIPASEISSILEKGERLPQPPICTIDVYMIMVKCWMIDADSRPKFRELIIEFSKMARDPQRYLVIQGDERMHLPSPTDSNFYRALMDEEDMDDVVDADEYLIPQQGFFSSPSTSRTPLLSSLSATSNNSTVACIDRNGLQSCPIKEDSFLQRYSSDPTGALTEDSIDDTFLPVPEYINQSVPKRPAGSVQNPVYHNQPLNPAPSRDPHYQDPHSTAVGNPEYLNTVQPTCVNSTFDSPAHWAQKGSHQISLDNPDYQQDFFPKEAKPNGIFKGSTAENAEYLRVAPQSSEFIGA

Compound	IC50 [1] [µg/mL]	IC50 [2] [µg/mL]	IC50 [3] [µg/mL]	IC50 [4] [µg/mL]	IC50 [5] [µg/mL]	IC50 [6] [µg/mL]	IC50 [7] [µg/mL]	pIC50 [8, 10]	IC50 [9] [µg/mL]	pIC50 [8]	Inhibition of Cancer Cell Growth as Measured by Cell Number (IC50) SKBR3 ([1]; 48 hours exposure) [µg/mL]	Inhibition of Cancer Cell Growth as Measured by Cell Number (IC50) A431 ([2]; 48 hours exposure) [µg/mL]	Inhibition of Cancer Cell Growth as Measured by Cell Number (IC50) MCF7 [3] [µg/mL]	Inhibition of Cancer Cell Growth as Measured by Cell Number (IC50) A2780DDP [4] [µg/mL]	Inhibition of Cancer Cell Growth as Measured by Cell Number (IC50) SW620 ([5]; 48 hours exposure) [µg/mL]	Inhibition of Cancer Cell Growth as Measured by Cell Number (IC50) LOX [6] [µg/mL]	Inhibition of Cancer Cell Growth as Measured by Cell Number (IC50) MB435 [9] [µg/mL]	Inhibition of Cancer Cell Growth as Measured by Cell Number (IC50) A2780S [7] [µg/mL]
O=C(/C=C/Cl)Nc1ccc2ncnc(Nc3cccc(Br)c3)c2c1 [Example 47, N-[4-[(3-Bromophenyl)amino]-6-quinazolinyl]-3(E)-chloro-2-propenamide]	0.496 (≈ 1.23 µM)	0.023 (≈ 0.057 µM)	1.17 (≈ 2.9 µM)	0.197 (≈ 0.488 µM)	0.39 (≈ 0.966 µM)	0.0772 (≈ 0.191 µM)	0.01 (≈ 0.0248 µM)	9.52	–	–	–	–	–	–	–	–	–	–
O=c1c(Nc2ccc3ncnc(Nc4cccc(Br)c4)c3c2)c(N2CCOCC2)c1=O [Example 52, 3-[4-(3-Bromo-phenylamino)-quinazolin-6-ylamino]-4-morpholin-4-yl-cyclobut-3-ene-1,2-dione]	38 (≈ 79.1 µM)	8.42 (≈ 17.5 µM)	53.1 (≈ 111 µM)	41.1 (≈ 85.7 µM)	> 100	7.6 (≈ 15.8 µM)	27 (≈ 56.3 µM)	–	26.8 (≈ 55.8 µM)	–	–	–	–	–	–	–	–	–
CN1CCC=C(C(=O)Nc2ccc3ncnc(Nc4cccc(Br)c4)c3c2)C1 [Example 53]	–	0.44 (≈ 1 µM)	5.09 (≈ 11.6 µM)	4.73 (≈ 10.8 µM)	–	5.62 (≈ 12.8 µM)	2.89 (≈ 6.59 µM)	–	4.31 (≈ 9.83 µM)	7.22	–	–	–	–	–	–	–	–
O=C(C=CCBr)Nc1ccc2ncnc(Nc3cccc(Br)c3)c2c1 [Example 65, 4-Bromo-but-2-enoic acid [4-(3-bromo-phenylamino)-quinazolin-6-yl]-amide]	0.3 (≈ 0.649 µM)	3.2 (≈ 6.92 µM)	42 (≈ 90.9 µM)	6.5 (≈ 14.1 µM)	8.1 (≈ 17.5 µM)	5.3 (≈ 11.5 µM)	5.2 (≈ 11.3 µM)	–	13 (≈ 28.1 µM)	–	–	–	–	–	–	–	–	–
CN(C)CC=CC(=O)Nc1ccc2ncnc(Nc3cccc(Br)c3)c2c1 [Example 66, 4-Dimethylamino-but-2-enoic acid [4-(3-bromo-phenylamino)-quinazolin-6-yl]-amide]	< 0.01	0.007 (≈ 0.0164 µM)	7.6 (≈ 17.8 µM)	5.1 (≈ 12 µM)	5.1 (≈ 12 µM)	4.9 (≈ 11.5 µM)	3.9 (≈ 9.15 µM)	–	5.4 (≈ 12.7 µM)	–	–	–	–	–	–	–	–	–
CSSC(C)C(=O)Nc1ccc2ncnc(Nc3cccc(Br)c3)c2c1 (centres unmarked) [Example 73, N-[4-(3-Bromo-phenylamino)-quinazolin-6-yl]-2-methyldisulfanyl-propionamide]	–	1.07 (≈ 2.38 µM)	5.04 (≈ 11.2 µM)	3 (≈ 6.68 µM)	3.65 (≈ 8.12 µM)	3.1 (≈ 6.9 µM)	1.77 (≈ 3.94 µM)	–	–	–	–	–	–	–	–	–	–	–
O=C(Nc1ccc2ncnc(Nc3cccc(Br)c3)c2c1)C1CO1 (centres unmarked) [Example 81, Oxirane-2-carboxylic acid [4-(3-bromo-phenylamino)-quinazolin-6-yl]-amide]	0.306 (≈ 0.794 µM)	0.34 (≈ 0.883 µM)	1.03 (≈ 2.67 µM)	0.311 (≈ 0.807 µM)	0.584 (≈ 1.52 µM)	0.386 (≈ 1 µM)	0.257 (≈ 0.667 µM)	9.15	–	–	–	–	–	–	–	–	–	–
C=CS(=O)(=O)Nc1ccc2ncnc(Nc3cccc(Br)c3)c2c1 [Example 82, Ethenesulfonic acid[4-(3-bromo-phenylamino)-quinazolin-6-yl]-amide]	0.269 (≈ 0.664 µM)	0.025 (≈ 0.0617 µM)	0.81 (≈ 2 µM)	0.112 (≈ 0.276 µM)	0.53 (≈ 1.31 µM)	0.382 (≈ 0.943 µM)	0.0626 (≈ 0.154 µM)	–	–	–	–	–	–	–	–	–	–	–
N-[4-(3-Bromo-phenylamino)-quinazolin-6-yl]-2-morpholin-4-ylmethyl-acrylamide [Example 63]	–	–	–	–	–	–	–	–	–	–	<0.01	0.6	17	4.0	5.5	3.9	4.5	0.8
